Test results taken from patent publication US20070191395A1 (priority 2004, published 2007).
≈ marks a conversion by molar mass, not a printed value.

How the values were obtained:
Assay type in all cases: cell-based
[1] = test system: Candida albicans ATCC MYA-573; test: Antifungal activity, growth inhibition (alamar Blue), Candida albicans; conditions: GI50 versus drug non-addition growth
Protocol: (§1) Measuring method of the antifungal activities of the compounds of the present invention carried out in accordance with Japanese Journal of Medical Mycology, 40, 243-246, 1999, Japanese Society for Medical Mycology Standardization Committee, (alamar Blue), and the or 80% growth inhibition (GI50 or GI80) concentration (μg/ml) for drug non-addition growth as the positive control was measured.

[2] = test system: Saccharomyces cerevisiae AY-14; test: Antifungal activity, growth inhibition (alamar Blue), Saccharomyces cerevisiae; conditions: GI80 versus drug non-addition growth
Protocol: as §1

[3] = test system: Candida krusei ATCC 44507; test: Antifungal activity, growth inhibition (alamar Blue), Candida krusei; conditions: for GI50, 50% growth inhibition concentration, Candida krusei ATCC 44507: GI50 versus drug non-addition growth
Protocol: as §1

[4] = test system: Candida glabrata ATCC 48435; test: Antifungal activity, growth inhibition (alamar Blue), Candida glabrata; conditions: GI80 versus drug non-addition growth
Protocol: as §1

| Compound | GI50, 50% growth inhibition concentration, Candida albicans ATCC MYA-573 [1] [µg/mL] | GI80, 80% growth inhibition concentration, Saccharomyces cerevisiae AY-14 [2] [µg/mL] | GI50, 50% growth inhibition concentration, Candida krusei ATCC 44507 [3] [µg/mL] | GI80, 80% growth inhibition concentration, Candida glabrata ATCC 48435 [4] [µg/mL] | GI50 ([1]; read-out: GI50, 50% growth inhibition concentration, Candida albicans ATCC MYA-573) [µg/mL] | GI50 ([3]; Pichia kudriavzevii, ATCC44507, GI50 versus drug non-addition growth, read-out: GI50, 50% growth inhibition concentration, Candida krusei ATCC 44507) [µg/mL] |
| --- | --- | --- | --- | --- | --- | --- |
| Cc1c(-c2ccccc2)c(N2CC[C@H](N(C)C)C2)n2cc(C(C)C)nc2c1C#N [Example 8] | 1 (≈ 2.58 µM) | 2 (≈ 5.16 µM) | >4 | 0.125 (≈ 0.323 µM) | – | – |
| Cc1c(-c2ccccc2)c(N2CC[C@H](N(C)C)C2)n2cc(C(C)(C)C)nc2c1C#N [Example 9, (3′S)-2-tert-Butyl-5-(3-dimethylaminopyrrolidin-1-yl)-7-methyl-6-phenylimidazo[1,2-a]pyridine-8-carbonitrile] | 0.25 (≈ 0.623 µM) | 0.125 (≈ 0.311 µM) | >4 | 0.25 (≈ 0.623 µM) | – | – |
| Cc1c(-c2ccccc2)c(N2CC[C@H](N(C)C)C2)n2nc(C(C)(C)C)nc2c1C#N [Example 25] | 4 (≈ 9.94 µM) | 0.063 (≈ 0.157 µM) | >4 | 0.125 (≈ 0.311 µM) | – | – |
| C=C(C)c1nc2c(C#N)c(C)c(-c3ccccc3)c(N3CC[C@H](N(C)C)C3)n2n1 [Example 33] | 4 (≈ 10.3 µM) | 0.004 (≈ 0.0103 µM) | 4 (≈ 10.3 µM) | 0.008 (≈ 0.0207 µM) | – | – |
| Cc1c(-c2ccccc2)c(N2CC[C@H](N(C)C)C2)n2nc(C(C)(C)COCc3ccccc3)nc2c1C#N [Example 39] | 0.5 (≈ 0.983 µM) | 0.063 (≈ 0.124 µM) | >4 | 0.25 (≈ 0.491 µM) | – | – |
| Cc1c(-c2ccccc2)c(N2CC[C@H](N(C)C)C2)n2nc(C(C)(C)C)cc2c1C#N [Example 62] | 4 (≈ 9.96 µM) | 2 (≈ 4.98 µM) | 4 (≈ 9.96 µM) | 2 (≈ 4.98 µM) | – | – |
| OC(Cn1cncn1)(Cn1cncn1)c1ccc(F)cc1F [Fluconazole, reference compound] | – | 4 (≈ 13.1 µM) | – | 4 (≈ 13.1 µM) | > 4 | > 4 |
